Legend:
[1] = tested on: A. niger; assay: culture of the fungi A. niger exposed to disk moistened with formulation (glycerol/SDS base); type: cell-based, Aspergillus niger; conditions: under more controlled conditions; 0.5 and 1% formulations
Procedure: Formulations were further tested against a culture of the fungi A. niger. The fungi was exposed to 1% PCO/1% POH, 1% PCO, and 1% POH formulations. All formulations were prepared in a glycerol/SDS base in water.

[2] = tested on: A. niger; assay: agar diffusion-disk technique, halo formation (fungal strains); type: cell-based, Aspergillus niger; conditions: for re-growth around the formulation: A. niger, 96 hours after inhibition; for activity against A. niger: formulation at 0.5%, after 7 days
Procedure: This technique is explained in R. K. Dart, Microbiology for the Analytic Chemist, The Royal Society of Chemists, 1996, which is incorporated herein by reference. […] Anti-bacterial activity was detected by showing a distinguished halo around the disk previously wetted with the formulation. Halo formation was measured with a caliper and biological activity was considered according to size. Details of specific applications and formulations are set forth below. […] SDS indicates Sodium Dodecyl Sulfate. […] Details of specific applications and formulations are set forth below.

[3] = tested on: bacteria, yeast or fungi; assay: general statements on activity against bacteria, yeast or fungi; type: cell-based; conditions: enhancer alone

SMILES	inhibition of growth of A. niger [1]	re-growth around the formulation [2]	activity against A. niger [2]	activity against bacterial cells [3]	effect against bacteria, yeast or fungi [3]
C=C(C)C1CC=C(C=O)CC1 (stereo not drawn) [PCO, perillyl aldehyde]	did inhibit growth	no growth	very active	–	–
C=C(C)[C@@H]1CC=C(CO)CC1 [POH, perillyl alcohol, reference compound]	did not perform as aggressively	re-growth	considerable growth	–	–
CCCCCCCCCCCCOS(=O)(=O)[O-].[Na+] [SDS, Sodium Dodecyl Sulfate]	–	–	–	do not provide activity	–
CC(O)CO (stereo not drawn) [propylene glycol]	–	–	–	do not provide activity	no effect

— patent US20060229368A1, “MEDICAL APPLICATION OF OXIDIZED MONOTERPENES” (priority 2001, published 2006)
